Measurements: patent US20160075653A1, “NEMATICIDAL N-(PHENYLCYCLOALKYL)CARBOXAMIDES AND N-(PHENYLCYCLOALKYL)THIOCARBOXAMIDES” (BAYER CROPSCIENCE AKTIENGESELLSCHAFT, priority 2013, published 2016)

test: Measurement of log P values by HPLC on reversed phase columns (methods [a] pH 2.3, [b] pH 2.7, [c] pH 7.8); format: physicochemical; conditions: HPLC on reversed phase column, method [b], pH 2.7
Protocol: Measurement of log P-Values:
Measurement of log P Values was Performed According EEC Directive 79/831 Annex V.A8 by HPLC (High Performance Liquid
Chromatography) on reversed phase columns with the following methods: ^[a] Measurement was done at pH 2.3 with 0.1% phosphoric acid and acetonitrile as eluent with a linear gradient from 10% acetonitrile to 95% acetonitrile. ^[b] measurement of LC-MS was done at pH 2.7 with 0.1% formic acid in water and with acetonitrile (contains 0.1% formic acid) as eluent with a linear gradient from 10% acetonitrile to 95% acetonitrile. ^[c] Measurement with LC-MS was done at pH 7.8 with 0.001 molar ammonium hydrogen carbonate solution in water as eluent with a linear gradient from 10% acetonitrile to 95% acetonitrile.
Calibration was done with linear alkan-2-ones (with 3 to 16 carbon atoms) with known log P-values (measurement of log P values using retention times with linear interpolation between successive alkanones). Lambda-max-values were determined using UV-spectra from 200 nm to 400 nm and the peak values of the chromatographic signals.

logP | Structure (SMILES)
2.58^[b] | O=C(N[C@@H]1CC[C@H]1c1ccc(Cl)cc1Cl)c1cccnc1 (relative stereo) [Example 662]
3.47^[b] | O=C(N[C@@H]1CC[C@H]1c1ccc(Cl)cc1Cl)c1ccccc1[N+](=O)[O-] (relative stereo) [Example 672]
3.75^[b] | O=C(N[C@@H]1CC[C@@H]1c1ccc(Cl)cc1C(F)(F)F)c1ccccc1Cl (relative stereo) [Example 666]

Further lines, the compound ahead of its results:

Structure (SMILES) | logP
O=C(N[C@@H]1CC[C@@H]1c1ccc(Cl)cc1C(F)(F)F)c1ccccc1 (relative stereo) [Example 680] | 3.51^[b]
O=C(N[C@@H]1CC[C@H]1c1cccc(F)c1C(F)(F)F)c1ncc(C(F)(F)F)cc1Cl (relative stereo) [Example 602] | 4.10^[b]
O=C(N[C@@H]1CC[C@H]1c1ccc(Cl)cc1C(F)(F)F)c1ccccc1[N+](=O)[O-] (relative stereo) [Example 712] | 3.61^[b]
CC1=C(C(=O)NC2CCC2c2ccccc2C(F)(F)F)S(=O)(=O)CCO1 (centres unmarked) [Example 606] | 2.49^[b]
Cn1cc(C(=O)N[C@@H]2CC[C@@H]2c2cccc(F)c2C(F)(F)F)c(C(F)F)n1 (relative stereo) [Example 643] | 2.75^[b]
O=C(N[C@@H]1CC[C@H]1c1ccc(Cl)cc1C(F)(F)F)c1nccnc1Cl (relative stereo) [Example 716] | 3.56^[b]
O=C(N[C@@H]1CC[C@H]1c1cccc(F)c1C(F)(F)F)c1ccccc1Br (relative stereo) [Example 632] | 3.57^[b]

same assay, conditions: HPLC on reversed phase column, method [c], pH 7.8

logP | Structure (SMILES)
2.45^[c]; | CC1=C(C(=O)NC2CCC2c2ccccc2C(F)(F)F)S(=O)(=O)CCO1 (centres unmarked) [Example 606]

same assay, conditions: HPLC on reversed phase columns, method [b], pH 2.7

logP | Structure (SMILES)
2.92^[b] | CCc1nn(C)c(F)c1C(=O)N[C@@H]1CCC[C@@H]1c1ccc(F)c(F)c1 (relative stereo) [Example 83]
2.22^[b] | Cc1nn(C)c(Cl)c1C(=O)NC1CC1c1ccc(Cl)cc1 (centres unmarked) [Example 14]
3.19^[b] | Cc1nc(C(F)(F)F)c(C(=O)N[C@@H]2CCC[C@@H]2c2ccc(F)c(F)c2)s1 (relative stereo) [Example 55]
3.32^[b] | O=C(N[C@@H]1C[C@H]1c1ccccc1Cl)c1c(Cl)cccc1Cl (relative stereo) [Example 50]
3.04^[b] | N#Cc1ccccc1C(=O)N[C@@H]1CCC[C@@H]1c1ccc(F)c(F)c1 (relative stereo) [Example 73]
3.31^[b] | N#Cc1ncccc1C(=O)N[C@@H]1CCC[C@H]1c1ccc(F)c(F)c1 (relative stereo) [Example 110]
3.83^[b] | Cn1ccc(I)c1C(=O)N[C@@H]1CCC[C@@H]1c1ccc(F)c(F)c1 (relative stereo) [Example 100]
2.84^[b] | CC(F)c1nn(C)cc1C(=O)NC1CCCC1c1ccc(F)c(F)c1 (mixture of isomers) [Example 126]
3.87^[b] | O=C(NC1CCC1c1c(Cl)cccc1Cl)c1cccc(Cl)c1 (centres unmarked) [Example 729]
2.60^[b] | Cc1nn(C)c(F)c1C(=O)N[C@@H]1CCC[C@@H]1c1ccc(F)c(F)c1 (relative stereo) [Example 77]
3.13^[b] | Cn1cccc1C(=O)N[C@@H]1CCC[C@@H]1c1ccc(F)c(F)c1 (relative stereo) [Example 111]

same assay, conditions: HPLC reversed phase, method [b] (pH 2.7)

logP | Structure (SMILES)
2.62^[b] | O=C(NC1CC1c1ccccc1Cl)c1cccnc1C(F)(F)F (centres unmarked) [Example 499]
2.79^[b] | O=C(N[C@@H]1C[C@@H]1c1ccc(Cl)cc1)c1ccccc1F (relative stereo) [Example 269]
2.90^[b] | O=C(NC1CC1c1ccc(Cl)cc1)c1ccccc1C(F)F (centres unmarked) [Example 459]
3.65^[b] | O=C(N[C@@H]1CC[C@@H]1c1ccccc1Cl)c1ccc(Cl)cc1Cl (relative stereo) [Example 249]
3.65^[b] | O=C(N[C@@H]1CC[C@H]1c1ccccc1Cl)c1cccnc1Cl (relative stereo) [Example 533]
2.74^[b] | Cc1nn(C)cc1C(=O)NC1CCCCC1c1ccccc1Br (centres unmarked) [Example 402]
3.93^[b] | O=C(N[C@@H]1CC[C@@H]1c1c(F)cccc1C(F)(F)F)c1ccc(Cl)cc1Cl (relative stereo) [Example 535]
3.69^[b] | Cc1nn(C)cc1C(=O)NC1CCCC1c1ccccc1Br (centres unmarked) [Example 345]

The next lines start with the compound.

Structure (SMILES) | logP
O=C(N[C@@H]1CCC[C@@H]1c1ccccc1F)c1ccccc1Br (relative stereo) [Example 319] | 3.18^[b]
Cc1nc(C)c(C(=O)NC2CCCC2c2ccccc2Br)s1 (centres unmarked) [Example 344] | 2.86^[b]
O=C(NC1CCCCC1c1ccccc1C(F)(F)F)c1ccccc1I (centres unmarked) [Example 389] | 4.13^[b]
O=C(NC1CCCC1c1ccc(C(F)(F)F)cc1)c1ccccc1Cl (centres unmarked) [Example 305] | 3.68^[b]
Cn1cc(C(=O)NC2CCCC2c2ccccc2C(F)(F)F)c(C(F)F)n1 (centres unmarked) [Example 287] | 3.06^[b]
O=C(NC1CCCC1c1ccccc1C(F)(F)F)c1ccccc1C(F)(F)F (centres unmarked) [Example 286] | 3.79^[b]
O=C(NC1CCCC1c1ccc(C(F)(F)F)cc1)c1ccccc1I (centres unmarked) [Example 363] | 3.86^[b]
O=C(NC1CCCCC1c1c(F)cccc1F)c1ccccc1C(F)(F)F (centres unmarked) [Example 399] | 3.87^[b]
O=C(NC1CC1c1ccc(Cl)cc1)c1ccccc1I (centres unmarked) [Compound 273] | 2.94^[b]
O=C(NC1CCC1c1ccccc1C(F)(F)F)c1ccccc1I (centres unmarked) [Example 428] | 3.42^[b]
O=C(NC1CCC1c1ccccc1C(F)(F)F)c1ncc(C(F)(F)F)cc1Cl (centres unmarked) [Example 437] | 3.88^[b]
Cc1nc(C)c(C(=O)NC2CCCC2c2ccccc2C(F)(F)F)s1 (centres unmarked) [Example 308] | 2.97^[b]
O=C(N[C@@H]1CC[C@@H]1c1cc(F)ccc1C(F)(F)F)c1ccc(Cl)cc1 (relative stereo) [Example 527] | 3.63^[b]
Cc1nc(C)c(C(=O)NC2CCCCC2c2c(F)cccc2F)s1 (centres unmarked) [Example 394] | 3.16^[b]
O=C(NC1CCCC1c1ccccc1Br)c1ccccc1C(F)(F)F (centres unmarked) [Example 355] | 3.71^[b]
O=C(N[C@@H]1CC[C@@H]1c1ccc(F)cc1C(F)(F)F)c1cccc(Cl)c1 (relative stereo) [Example 511] | 3.65^[b]
O=C(NC1CCCCC1c1ccccc1C(F)(F)F)c1ccccc1I (centres unmarked) [Example 373] | 4.22^[b]
O=C(NC1CCCCC1c1ccccc1Br)c1cccnc1C(F)(F)F (centres unmarked) [Example 403] | 3.53^[b]
O=C(N[C@@H]1CCC[C@@H]1c1ccc(C(F)(F)F)cc1)c1sccc1I (relative stereo) [Example 360] | 4.21^[b]
O=C(NC1CCCCC1c1c(F)cccc1F)c1c(F)cccc1F (centres unmarked) [Example 395] | 3.44^[b]
O=C(N[C@@H]1CC[C@@H]1c1c(F)cccc1C(F)(F)F)c1ccc(Cl)cc1 (relative stereo) [Example 536] | 3.72^[b]

same assay, conditions: HPLC reversed phase, method [c] pH 7.8

logP | Structure (SMILES)
2.75^[c]; | O=C(N[C@@H]1C[C@@H]1c1ccc(Cl)cc1)c1ccccc1F (relative stereo) [Example 269]
2.88^[c]; | O=C(NC1CC1c1ccc(Cl)cc1)c1ccccc1C(F)F (centres unmarked) [Example 459]

Continued, compound first:

Structure (SMILES) | logP
O=C(N[C@@H]1CCC[C@@H]1c1ccccc1F)c1ccccc1Br (relative stereo) [Example 319] | 3.14^[c];
O=C(NC1CCCC1c1ccc(C(F)(F)F)cc1)c1ccccc1Cl (centres unmarked) [Example 305] | 3.63^[c];
O=C(NC1CCCC1c1ccc(C(F)(F)F)cc1)c1ccccc1I (centres unmarked) [Example 363] | 3.79^[c];
O=C(NC1CC1c1ccc(Cl)cc1)c1ccccc1I (centres unmarked) [Compound 273] | 2.88^[c];
O=C(N[C@@H]1CCC[C@@H]1c1ccc(C(F)(F)F)cc1)c1sccc1I (relative stereo) [Example 360] | 4.16^[c];

same assay, conditions: method [b], HPLC reversed phase, pH 2.7

logP | Structure (SMILES)
3.27^[b] | O=C(NC1CC1c1ccc(Cl)cc1)c1ccccc1C(F)(F)F (centres unmarked) [Example 201]
3.84^[b] | O=C(N[C@@H]1CC[C@H]1c1ccccc1Cl)c1ccc(Cl)cc1Cl (relative stereo) [Example 240]
3.56^[b] | O=C(N[C@@H]1CCC[C@H]1c1ccc(F)c(F)c1)c1ccccc1I (relative stereo) [Example 131]
3.57^[b] | O=C(NC1CC1c1ccc(Cl)cc1Cl)c1ccccc1Cl (centres unmarked) [Example 206]
2.63^[b] | Cn1nc(C(F)(F)F)c(C(=O)NC2CC2c2ccccc2)c1F (centres unmarked) [Example 178]
3.13^[b] | Cn1nc(C(F)F)c(C(=O)NC2CCCCC2c2ccccc2)c1F (centres unmarked) [Example 181]

More lines, now with the values behind:

Structure (SMILES) | logP
Cn1cc(C(=O)NC2CCCCC2c2ccccc2)c(C(F)F)n1 (centres unmarked) [Example 186] | 3.00^[b]
O=C(NC1CCC1c1ccccc1Cl)c1ncc(C(F)(F)F)cc1Cl (centres unmarked) [Example 237] | 3.96^[b]
Cn1cc(C(=O)N(C2CC2)C2CCCCC2c2ccccc2)c(C(F)F)n1 (centres unmarked) [Example 138] | 3.60^[b]
CCc1nn(C)c(F)c1C(=O)N(C1CC1)C1CCCCC1c1ccccc1Cl (centres unmarked) [Example 162] | 4.39^[b]

same assay, conditions: method [c], HPLC reversed phase, pH 7.8

logP | Structure (SMILES)
3.21^[c]; | O=C(NC1CC1c1ccc(Cl)cc1)c1ccccc1C(F)(F)F (centres unmarked) [Example 201]
3.47^[c]; | O=C(NC1CC1c1ccc(Cl)cc1Cl)c1ccccc1Cl (centres unmarked) [Example 206]

same assay, conditions: reversed phase HPLC columns, pH 2.7, HPLC on reversed phase column, method [b], pH 2.7; read-out: logP

chromatographic logP | Structure (SMILES)
2.79 | O=C(N[C@@H]1CC[C@H]1c1ccccc1C(F)(F)F)c1cccnc1Cl [Example 620]

same assay, conditions: reversed phase HPLC columns, pH 2.7, HPLC on reversed phase columns, method [b] (pH 2.7); read-out: logP

chromatographic logP | Structure (SMILES)
3.36 | O=C(N[C@@H]1CC[C@@H]1c1c(Cl)cccc1Cl)c1ccc(Cl)cc1 [Example 738]
3.09 | O=C(N[C@@H]1CC[C@@H]1c1ccc(Cl)cc1C(F)(F)F)c1cccnc1Cl [Example 739]

Further lines, the compound ahead of its results:

Structure (SMILES) | chromatographic logP
Cc1nc(C(F)(F)F)c(C(=O)N[C@@H]2CC[C@@H]2c2c(Cl)cccc2Cl)s1 [Example 740] | 3.6
O=C(N[C@@H]1CC[C@@H]1c1c(Cl)cccc1Cl)c1ccccc1[N+](=O)[O-] [Example 733] | 3.08
O=C(N[C@@H]1C[C@]1(F)c1ccc(Cl)cc1)c1ccccc1Br [Example 751] | 2.84
O=C(N[C@@H]1CC[C@H]1c1ccc(Cl)cc1C(F)(F)F)c1cccnc1 [Example 732] | 2.74
